In patent US6911470B1, “Polyoxometalate compounds as antiviral agents” (priority 1988, dated 2005):

Columns and labels:
[1] = test system: Vero cells; experiment: Cytotoxicity assay in Vero cells; format: cell-based; conditions: Table 2; >100 μM = Nontoxic; read-out: IC50 Toxicity Vero Cells
Description: Cell culture assays for heroes simplex viruses. Mycoplasma-free Vero cells, obtained from Flow Laboratory (McLean, Va.), were used for the plaque assays. The methodologies for the plaque reduction and cytotoxicity assays have been previously described (Schinazi et al, Antimicrob. Agents Chemother. 22, 499-507, 1982).

[2] = biological target: T1, HIV-1 reverse transcriptase (Human immunodeficiency virus type 1 group M subtype B, UniProt P04585); experiment: Evaluation of compounds on purified retroviral RT (cell-free, virion-derived); format: biochemical; conditions: Table 2; read-out: EC-50 Cell-Free RT (virion-derived)
T1 construct: HIV-1 RT was isolated from detergent disrupted virions; made in house; host or cells: virions pelleted from culture fluid of HIV-1-infected PHA-stimulated human PBMC; DEAE-cellulose and phosphocellulose chromatography
Protocol: Evaluation of compounds on purified retroviral RT. HIV-1 RT was isolated from detergent disrupted virions obtained from the cell-free supernatant of infected PHA-stimulated PBMC. The enzyme was purified by passing the extract through ion-exchange chromatography columns, as described previously (Eriksson et al, Antimicrob. Agents Chemother. 31, 600-604, 1977. Briefly, 750 ml of culture fluid harvested from HIV-1-infected PBMC were ultracentrifuged to pellet the virus. The pellet was dissolved in buffer A [50 mM Tris-HCl, pH 7.9/0.25% Nonidet P-40/5 mM dithiothreitol/20% (vol/vol) glycerol] containing 1 mM EDTA, and freeze-thawed four times. After clarification by centrifugation, the enzyme was partially purified from the supernatant by passing the extract through a DEAE-cellulose column (Whatman DE-52; 2.6×15 cm) previously equilibrated with buffer B (50 mM Tris-Cl, pH 7.9, 50 mM KCl, 1 mM EDTA, 1 mM dithiothreitol, 20% glycerol). Elution was performed using a linear gradient 50-500 mM KCl in buffer B. Fractions containing enzyme activity were dialyzed against buffer B and were further purified on a phosphocellulose column (Whatman P-11) using a linear KCl (50-500 mM) gradient in buffer B. The peak fractions were pooled and dialyzed against buffer B. The enzyme was characterized as HIV-1 reverse transcriptase based on its cation, salt, pH, and template requirements according to previous descriptions (Eriksson et al, Antimicrob. Agents Chemother. 31, 600-604, 1977). The standard reaction mixture was used to evaluate the inhibitory effect of the drugs, as previously described (Eriksson et al, Antimicrob. Agents Chemother. 31, 600-604, 1977). Briefly, the reaction mixtures (final volume 100 μl) contained 100 mM Tris-HCl, pH 8.0, 50 mM KCl, 2 mM MgCl2, 5 mM DTT, 400 ug/ml bovine serum albumin, 3 μg/ml (rA)·(dT)12-18 and 1 μM of [^3H]TTP (specific activity 82.3 Ci/mmol). The reactions were started by the addition of 10 μl of partially purified RT, incubated at 37° C. for 60 min., and processed as previously described (Eriksson et al, Antimicrob. Agents Chemother. 31, 600-604, 1977).
Median-effect method. Dose-effect relationships were analyzed by the median-effect equation (Chou et al, Adv. Enz. Regul. 22, 27-55, 1984). The slope (m) and median effective and inhibitory concentration (EC50 and IC50) values were obtained by using a computer program developed by Chou and Chou (Chou et al, Elsevier-Biosoft, Elsevier Science Publishers, Cambridge, U.K., 1985).

[3] = test system: HSV-1; experiment: Plaque reduction assay for herpes simplex viruses in Vero cells; format: cell-based, herpes simplex virus type 1; conditions: Table 2; read-out: EC-50 HSV-1
Protocol: (§1) Cell culture assays for heroes simplex viruses. Mycoplasma-free Vero cells, obtained from Flow Laboratory (McLean, Va.), were used for the plaque assays. The methodologies for the plaque reduction and cytotoxicity assays have been previously described (Schinazi et al, Antimicrob. Agents Chemother. 22, 499-507, 1982). Median-effect method. Dose-effect relationships were analyzed by the median-effect equation (Chou et al, Adv. Enz. Regul. 22, 27-55, 1984). The slope (m) and median effective and inhibitory concentration (EC50 and IC50) values were obtained by using a computer program developed by Chou and Chou (Chou et al, Elsevier-Biosoft, Elsevier Science Publishers, Cambridge, U.K., 1985).

[4] = test system: human PBM cells; experiment: Cytotoxicity assay on uninfected PHA stimulated human PBMC (trypan blue); format: cell-based; conditions: Table 2; >100 μM = Nontoxic; read-out: IC50 Toxicity PBM Cells
Protocol: Cells. […] PBS), and pelleted at 300×g for 10 minutes. […] Cytotoxicity assay. The drugs were evaluated for their potential toxic effects on uninfected PHA stimulated human PBMC. Flasks were seeded so that the final cell concentration was 2×10^5 cells/ml. The cells were cultured with and without drug for 6 days, at which time aliquots were counted for cell viability, as assessed by the trypan blue dye-exclusion method using a hemacytometer. The median inhibitory concentration (IC50) was calculated using the median effect method (Chou et al, Elsevier-Biosoft, Elsevier Science Publishers, Cambridge, U.K., 1985; Chou et al, Adv. Enz. Regul. 22, 27-55, 1984). Median-effect method. Dose-effect relationships were analyzed by the median-effect equation (Chou et al, Adv. Enz. Regul. 22, 27-55, 1984). The slope (m) and median effective and inhibitory concentration (EC50 and IC50) values were obtained by using a computer program developed by Chou and Chou (Chou et al, Elsevier-Biosoft, Elsevier Science Publishers, Cambridge, U.K., 1985).

[5] = test system: Friend, Spleen (EY-10); experiment: UV/XC assay for murine retroviruses in SC-1 cells; format: cell-based, murine retrovirus; conditions: Table 2; read-out: EC-50 Friend, Spleen (EY-10)
Protocol: UV/XC Assay for Murine Retroviruses Cells. Mouse embryo fibroblasts (SC-1) and XC cells were obtained from the American Type Culture Collection, Rockville, Md. The XC cell line was derived from a transplantable tumor induced in newborn White-Weston rats by the intramuscular injection of the Prague strain of Rous sarcoma virus. […] The cells were maintained in Eagle's minimum essential medium with Hanks balanced salt solution, supplemented with penicillin (100 U/ml), streptomycin (100 μg/ml), sodium bicarbonate (24 mM), Hepes (25 mM), and either 2 (maintenance) or 10 (growth) percent inactivated newborn or fetal calf serum.
Virus quantitation by UV-XC assay. The XC test (Rowe et al, Virology 42, 1136-1139, 1970) is a plaque-type of assay which tests for the presence and titer of B- and N-tropic murine leukemia viruses. Because these viruses produce no overt signs of infection of SC-1 mouse cells, it is necessary to overlay the virus producing culture with an indicator cell line, XC. The number of syncytia that are produced is a direct measure of the virus titer in FFU.
Six-well plates were seeded with 1×10^5 SC-1 mouse cells on the first day. On the following day the medium was removed and the inoculum (0.2 ml) was added in medium containing polybrene (4 μg/ml). For determining the antiviral activity of the compounds in culture, the virus dilution selected produced in untreated cultures about 80 foci per well. After 1 hour, the virus was removed and various concentrations of the drug were added. The plates were replenished with medium on the third and fifth days. The medium was removed on the eighth day and the cells exposed to UV irradiation (60 erg/mm^2 per sec) for 30 seconds. Medium containing 10^6 XC cells was then added to each plate. On the eleventh day, the plates were fixed with 10% buffered Formalin and stained with crystal violet. Comparison of the number of foci to those found in virus-infected cells receiving no drug allowed determination of whether a drug at a particular concentration was effective. Control cells without virus but receiving the drug provided an estimate of the drug's toxic effects as quantitated by using trypan blue staining.

[6] = test system: HSV-2; experiment: Plaque reduction assay for herpes simplex viruses in Vero cells; format: cell-based, herpes simplex virus type 2; conditions: Table 2; read-out: EC-50 HSV-2
Protocol: as §1

[7] = test system: human granulocyte-macrophage precursor cells; format: cell-based
Description: Preparation of Cells. Human bone marrow cells were collected by aspiration from the posterior iliac crest of normal healthy volunteers, treated with heparin and the mononuclear population separated by Ficoll-Hypaque gradient centrifugation. Cells were washed twice in Hanks balanced salt solution, counted with a hemacytometer and their viability was >98% as assessed by trypan blue exclusion.
Assay of Colony-Forming Unit Granulocyte-Macrophage (CFU-GM) for Drug Cytotoxicity. The culture assay for CFU-GM was performed using a bilayer soft-agar method as recently described (Sommadossi et al, Antimicrob. Agents Chemother. 31, 452-454, 1987). McCoy 5A nutrient medium supplemented with 15% dialyzed fetal bovine serum (heat inactivated at 56° C. for 30 min.) (Gibco Laboratories, Grand Island, N.Y.) was used in all experiments. This medium was completely lacking in thymidine and uridine. Cells were cloned in 0.3% agar in the presence of increasing concentrations of the modulating compound or in medium alone (control). After 14 days of incubation at 37° C. in a humidified atmosphere of 5% CO2 in air, colonies (≧50 cells) were counted using an inverted microscope.
The toxicities of a variety of polyoxometalates with respect to human bone marrow cells (human granulocyte-macrophage precursor cells) were assessed.

[8] = Comparison of toxicity of polyoxometalate compounds in mice (mortality, haematology); format: in vivo; design: MCV (mean corpuscular volume): unit not given here; conditions: BID × 6, 60 mkd i.p.
Description: Comparison of Toxicity of Polyoxometalate Compounds Mice.
In vivo antiviral experiments. […] Treatment was continued daily for 6 or 10 days.

Substance | IC50 [1] [µM] | EC50 [2] [µM] | EC50 [3] [µM] | IC50 [4] [µM] | EC50 [5] [µM] | EC50 [6] [µM] | toxicity to human bone marrow cells (order of toxicity, FIG. 6) [7] | Hct (hematocrit) ([8]; bled on day 17) [%] | Hgb (hemaglobin) ([8]; bled on day 17) [g/dL] | MCH ([8]; bled on day 17) [pg] | MCHC (mean corpuscular hemoglobin concentration) ([8]; bled on day 17) [g/dL] | MCV (mean corpuscular volume) ([8]; bled on day 17) | PLT (platelates) (×1000) ([8]; bled on day 17) | RBC (×1000000) ([8]; bled on day 17) | RDW (width of red cells) ([8]; bled on day 17) [%] | WBC (×1000) ([8]; bled on day 17) | Mortality ([8]; dead/total)
(LysH^+)q(H^+)5-qST, where q=1-5 [(LYSH^+)nH^+(4−n)ST] | > 100 | 20.5 | 0.32 | 2450 | 0.95 | < 1 |  |  |  |  |  |  |  |  |  |  | 
(NH4)4[SiW12O40] [NH4ST] |  |  |  |  |  |  | NH4BT (least toxic)<BT and NH4ST<AZT and ST | 17.47 ± 7.08 | 6.42 ± 2.39 | 17.6 ± 4.64 | 37.92 ± 9.82 | 43.38 ± 0.51 | 246.46 ×1000 | 3.76 ± 1.57 ×1000000 | 36.76 ± 2.63 | 7.18 ± 3.9 ×1000 | 0/5
